Source: US9738634B2, “Heterocyclic amide compound and herbicide” (SYNGENTA PARTICIPATIONS AG, priority 2013, dated 2017)

How the values were obtained:
Assay type in all cases: in vivo
Details in all cases: treatment dosage 320 g/ha
[1] = tested on: barnyard grass; assay: Test Example 1: weedkilling efficacy, preemergent weed treatment in the submerged state; A: barnyard grass
Summary of the method: (§1)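 Pre-emergence paddy test: weed seeds sown in submerged alluvial soil (4 cm water), 2.5-leaf rice transplanted, water-diluted emulsion applied to water surface at sowing at stated g/ha. Scored at 3 weeks, greenhouse 25–30 °C.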

[2] = tested on: bulrush; assay: Test Example 1: weedkilling efficacy, preemergent weed treatment in the submerged state; B: bulrush
Summary of the method: as §1

[3] = tested on: oval-leafed pondweed; assay: Test Example 1: weedkilling efficacy, preemergent weed treatment in the submerged state; C: oval-leafed pondweed
Summary of the method: as §1

[4] = tested on: transplanted rice; assay: Test Example 1: preemergent weed treatment in the submerged state, effect on crop; a: transplanted rice
Summary of the method: as §1

[5] = tested on: barnyard grass; assay: Test Example 2: weedkilling efficacy, growth period weed treatment in the submerged state; A: barnyard grass
Summary of the method: (§2)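 Seedlings at 1-2 leaves in 4 cm-deep submerged alluvial soil received emulsion formulations on the water surface, dosed per hectare; effects were judged 3 weeks on.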

[6] = tested on: bulrush; assay: Test Example 2: weedkilling efficacy, growth period weed treatment in the submerged state; B: bulrush
Summary of the method: as §2

[7] = tested on: oval-leafed pondweed; assay: Test Example 2: weedkilling efficacy, growth period weed treatment in the submerged state; C: oval-leafed pondweed
Summary of the method: as §2

[8] = tested on: crabgrass; assay: Test Example 3: weedkilling efficacy through soil treatment; D: crabgrass
Summary of the method: (§3)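 Crop and weed responses were judged three weeks after a uniform surface spray of the water-diluted emulsion at the given g/ha rate. Seeds sat beneath about 1.5 cm of sterilized diluvial soil, and boxes stood in a greenhouse at 25 to 30° C.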

[9] = tested on: green foxtail; assay: Test Example 3: weedkilling efficacy through soil treatment; E: green foxtail
Summary of the method: as §3

[10] = tested on: barnyard grass; assay: Test Example 3: weedkilling efficacy through soil treatment; F: barnyard grass
Summary of the method: as §3

[11] = tested on: wild oat; assay: Test Example 3: weedkilling efficacy through soil treatment; G: wild oat
Summary of the method: as §3

[12] = tested on: black-grass; assay: Test Example 3: weedkilling efficacy through soil treatment; H: black-grass
Summary of the method: as §3

[13] = tested on: Italian ryegrass; assay: Test Example 3: weedkilling efficacy through soil treatment; I: Italian ryegrass
Summary of the method: as §3

[14] = tested on: common wind-grass; assay: Test Example 3: weedkilling efficacy through soil treatment; J: common wind-grass
Summary of the method: as §3

[15] = tested on: Indian mallow; assay: Test Example 3: weedkilling efficacy through soil treatment; K: Indian mallow
Summary of the method: as §3

[16] = tested on: redroot pigweed; assay: Test Example 3: weedkilling efficacy through soil treatment; L: redroot pigweed
Summary of the method: as §3

[17] = tested on: fig-leafed goosefoot; assay: Test Example 3: weedkilling efficacy through soil treatment; M: fig-leafed goosefoot
Summary of the method: as §3

[18] = tested on: chickweed; assay: Test Example 3: weedkilling efficacy through soil treatment; N: chickweed
Summary of the method: as §3

[19] = tested on: catchweed; assay: Test Example 3: weedkilling efficacy through soil treatment; O: catchweed
Summary of the method: as §3

[20] = tested on: birds-eye speedwell; assay: Test Example 3: weedkilling efficacy through soil treatment; p: birds-eye speedwell
Summary of the method: as §3

[21] = tested on: directly sown rice; assay: Test Example 3: soil treatment, effect on crop; b: directly sown rice
Summary of the method: as §3

[22] = tested on: corn; assay: Test Example 3: soil treatment, effect on crop; c: corn
Summary of the method: as §3

[23] = tested on: soybean; assay: Test Example 3: soil treatment, effect on crop; d: soybean
Summary of the method: as §3

[24] = tested on: wheat; assay: Test Example 3: soil treatment, effect on crop; e: wheat
Summary of the method: as §3

[25] = tested on: beet; assay: Test Example 3: soil treatment, effect on crop; f: beet
Summary of the method: as §3

[26] = tested on: rapeseed; assay: Test Example 3: soil treatment, effect on crop; g: rapeseed
Summary of the method: as §3

[27] = tested on: crabgrass; assay: Test Example 4: weedkilling efficacy by foliar treatment; D: crabgrass
Summary of the method: (§4)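 Seeds are spot-sown into sterilized diluvial soil and covered with about 1.5 cm of soil. After 14 days' greenhouse growth at 25 to 30° C, plants are sprayed on stems and leaves with diluted emulsion at the stated g/ha rate, then scored at 3 weeks.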

[28] = tested on: green foxtail; assay: Test Example 4: weedkilling efficacy by foliar treatment; E: green foxtail
Summary of the method: as §4

[29] = tested on: barnyard grass; assay: Test Example 4: weedkilling efficacy by foliar treatment; F: barnyard grass
Summary of the method: as §4

[30] = tested on: wild oat; assay: Test Example 4: weedkilling efficacy by foliar treatment; G: wild oat
Summary of the method: as §4

[31] = tested on: black-grass; assay: Test Example 4: weedkilling efficacy by foliar treatment; H: black-grass
Summary of the method: as §4

[32] = tested on: Italian ryegrass; assay: Test Example 4: weedkilling efficacy by foliar treatment; I: Italian ryegrass
Summary of the method: as §4

[33] = tested on: common wind-grass; assay: Test Example 4: weedkilling efficacy by foliar treatment; J: common wind-grass
Summary of the method: as §4

[34] = tested on: Indian mallow; assay: Test Example 4: weedkilling efficacy by foliar treatment; K: Indian mallow
Summary of the method: as §4

[35] = tested on: redroot pigweed; assay: Test Example 4: weedkilling efficacy by foliar treatment; L: redroot pigweed
Summary of the method: as §4

[36] = tested on: fig-leafed goosefoot; assay: Test Example 4: weedkilling efficacy by foliar treatment; M: fig-leafed goosefoot
Summary of the method: as §4

[37] = tested on: chickweed; assay: Test Example 4: weedkilling efficacy by foliar treatment; N: chickweed
Summary of the method: as §4

[38] = tested on: catchweed; assay: Test Example 4: weedkilling efficacy by foliar treatment; O: catchweed
Summary of the method: as §4

[39] = tested on: directly sown rice; assay: Test Example 4: foliar treatment, effect on crop; b: directly sown rice
Summary of the method: as §4

[40] = tested on: corn; assay: Test Example 4: foliar treatment, effect on crop; c: corn
Summary of the method: as §4

[41] = tested on: soybean; assay: Test Example 4: foliar treatment, effect on crop; d: soybean
Summary of the method: as §4

[42] = tested on: wheat; assay: Test Example 4: foliar treatment, effect on crop; e: wheat
Summary of the method: as §4

[43] = tested on: beet; assay: Test Example 4: foliar treatment, effect on crop; f: beet
Summary of the method: as §4

[44] = tested on: rapeseed; assay: Test Example 4: foliar treatment, effect on crop; g: rapeseed
Summary of the method: as §4

CC1=C(c2ccccc2)C(=O)N(C(C)(C)C(=O)Nc2ccc(F)cn2)CO1 [B-2-26]
A (barnyard grass) weedkilling efficacy grade [1]: 5 (weed kill ratio 90% or more, (practically complete withering)) | B (bulrush) weedkilling efficacy grade [2]: 5 (weed kill ratio 90% or more, (practically complete withering)) | C (oval-leafed pondweed) weedkilling efficacy grade [3]: 5 (weed kill ratio 90% or more, (practically complete withering)) | a (transplanted rice) effect on crop grade [4]: 0 (weed kill ratio 5% or less (practically no effect)) | A (barnyard grass) weedkilling efficacy grade [5]: 5 (weed kill ratio 90% or more, (practically complete withering)) | B (bulrush) weedkilling efficacy grade [6]: 5 (weed kill ratio 90% or more, (practically complete withering)) | C (oval-leafed pondweed) weedkilling efficacy grade [7]: 5 (weed kill ratio 90% or more, (practically complete withering)) | D (crabgrass) weedkilling efficacy grade [8]: 5 (weed kill ratio 90% or more, (practically complete withering)) | E (green foxtail) weedkilling efficacy grade [9]: 5 (weed kill ratio 90% or more, (practically complete withering)) | F (barnyard grass) weedkilling efficacy grade [10]: 5 (weed kill ratio 90% or more, (practically complete withering)) | G (wild oat) weedkilling efficacy grade [11]: 1 (weed kill ratio 5% or more, less than 20%) | H (black-grass) weedkilling efficacy grade [12]: 5 (weed kill ratio 90% or more, (practically complete withering)) | I (Italian ryegrass) weedkilling efficacy grade [13]: 5 (weed kill ratio 90% or more, (practically complete withering)) | J (common wind-grass) weedkilling efficacy grade [14]: 5 (weed kill ratio 90% or more, (practically complete withering)) | K (Indian mallow) weedkilling efficacy grade [15]: 0 (weed kill ratio 5% or less (practically no effect)) | L (redroot pigweed) weedkilling efficacy grade [16]: 4 (weed kill ratio 70% or more, less than 90%) | M (fig-leafed goosefoot) weedkilling efficacy grade [17]: 4 (weed kill ratio 70% or more, less than 90%) | N (chickweed) weedkilling efficacy grade [18]: 3 (weed kill ratio 40% or more, less than 70%) | O (catchweed) weedkilling efficacy grade [19]: 2 (weed kill ratio 20% or more, less than 40%) | P (birds-eye speedwell) weedkilling efficacy grade [20]: 0 (weed kill ratio 5% or less (practically no effect)) | b (directly sown rice) effect on crop grade [21]: 2 (weed kill ratio 20% or more, less than 40%) | c (corn) effect on crop grade [22]: 0 (weed kill ratio 5% or less (practically no effect)) | d (soybean) effect on crop grade [23]: 0 (weed kill ratio 5% or less (practically no effect)) | e (wheat) effect on crop grade [24]: 0 (weed kill ratio 5% or less (practically no effect)) | f (beet) effect on crop grade [25]: 0 (weed kill ratio 5% or less (practically no effect)) | g (rapeseed) effect on crop grade [26]: 0 (weed kill ratio 5% or less (practically no effect)) | D (crabgrass) weedkilling efficacy grade [27]: 3 (weed kill ratio 40% or more, less than 70%) | E (green foxtail) weedkilling efficacy grade [28]: 4 (weed kill ratio 70% or more, less than 90%) | F (barnyard grass) weedkilling efficacy grade [29]: 3 (weed kill ratio 40% or more, less than 70%) | G (wild oat) weedkilling efficacy grade [30]: 3 (weed kill ratio 40% or more, less than 70%) | H (black-grass) weedkilling efficacy grade [31]: 4 (weed kill ratio 70% or more, less than 90%) | I (Italian ryegrass) weedkilling efficacy grade [32]: 3 (weed kill ratio 40% or more, less than 70%) | J (common wind-grass) weedkilling efficacy grade [33]: 5 (weed kill ratio 90% or more, (practically complete withering)) | K (Indian mallow) weedkilling efficacy grade [34]: 3 (weed kill ratio 40% or more, less than 70%) | L (redroot pigweed) weedkilling efficacy grade [35]: 4 (weed kill ratio 70% or more, less than 90%) | M (fig-leafed goosefoot) weedkilling efficacy grade [36]: 4 (weed kill ratio 70% or more, less than 90%) | N (chickweed) weedkilling efficacy grade [37]: 3 (weed kill ratio 40% or more, less than 70%) | O (catchweed) weedkilling efficacy grade [38]: 3 (weed kill ratio 40% or more, less than 70%) | b (directly sown rice) effect on crop grade [39]: 1 (weed kill ratio 5% or more, less than 20%) | c (corn) effect on crop grade [40]: 3 (weed kill ratio 40% or more, less than 70%) | d (soybean) effect on crop grade [41]: 4 (weed kill ratio 70% or more, less than 90%) | e (wheat) effect on crop grade [42]: 0 (weed kill ratio 5% or less (practically no effect)) | f (beet) effect on crop grade [43]: 4 (weed kill ratio 70% or more, less than 90%) | g (rapeseed) effect on crop grade [44]: 1 (weed kill ratio 5% or more, less than 20%)
